“Also recorded” adds a separate entry of the source. Each block holds one compound with its values, some of them ahead of it.
Columns and labels:
[1] = test system: left ventricular dp/dt max; experiment: Cardiac Stimulant Activity--In vivo (Conscious Dogs); design: species or system dog
Method: The compound of formula (2) increased left ventricular dp/dt max in conscious dogs after intravenous administration at doses below 0.02 mg/kg. Oral administration caused positive inotropic responses at doses of 0.05 mg/kg and below.

PDE (Peak III) [2] = target: T1, PDE (Peak III) (Felis catus, UniProt A0ABI7YEY2); experiment: Inhibition of Phosphodiesterases, PDE (Peak III)
T1 sequence (A0ABI7YEY2 1-1144): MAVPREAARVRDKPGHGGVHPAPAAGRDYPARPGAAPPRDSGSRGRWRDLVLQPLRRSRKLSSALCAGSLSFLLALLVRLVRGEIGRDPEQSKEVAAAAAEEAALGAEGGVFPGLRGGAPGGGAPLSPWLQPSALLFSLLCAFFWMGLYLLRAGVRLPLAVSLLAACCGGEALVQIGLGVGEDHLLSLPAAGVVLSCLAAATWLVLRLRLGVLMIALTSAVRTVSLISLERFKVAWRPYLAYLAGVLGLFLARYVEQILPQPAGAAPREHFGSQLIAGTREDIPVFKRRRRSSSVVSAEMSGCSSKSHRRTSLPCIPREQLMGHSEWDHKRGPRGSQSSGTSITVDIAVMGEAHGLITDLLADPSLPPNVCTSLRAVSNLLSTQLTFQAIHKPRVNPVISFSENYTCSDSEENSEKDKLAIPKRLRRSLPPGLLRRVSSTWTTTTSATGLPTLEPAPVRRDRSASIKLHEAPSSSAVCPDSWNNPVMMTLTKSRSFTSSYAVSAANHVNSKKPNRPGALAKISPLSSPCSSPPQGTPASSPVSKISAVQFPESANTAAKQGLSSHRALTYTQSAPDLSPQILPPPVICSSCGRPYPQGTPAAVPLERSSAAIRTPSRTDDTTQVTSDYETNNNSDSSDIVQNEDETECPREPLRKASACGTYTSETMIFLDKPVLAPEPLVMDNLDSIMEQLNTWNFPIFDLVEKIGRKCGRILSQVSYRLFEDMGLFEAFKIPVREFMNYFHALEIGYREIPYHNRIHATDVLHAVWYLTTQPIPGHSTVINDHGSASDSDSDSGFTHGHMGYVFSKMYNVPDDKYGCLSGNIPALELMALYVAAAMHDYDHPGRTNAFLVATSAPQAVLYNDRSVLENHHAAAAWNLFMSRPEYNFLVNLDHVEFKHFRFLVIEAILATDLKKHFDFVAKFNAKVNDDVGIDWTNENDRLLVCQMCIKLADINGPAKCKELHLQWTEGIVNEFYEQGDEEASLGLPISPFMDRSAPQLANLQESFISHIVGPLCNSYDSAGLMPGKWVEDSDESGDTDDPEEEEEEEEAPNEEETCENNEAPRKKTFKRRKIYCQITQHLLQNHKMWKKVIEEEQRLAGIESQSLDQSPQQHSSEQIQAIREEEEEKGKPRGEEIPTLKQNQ
Method: (§2) The enzyme was assayed by incubation at 37° for 4-30 min in 50 mM Tris, 5 mM MgCl2, pH 7.5 with [3-H] cyclic nucleotide (4×10^5 disintegrations min^-1) and [14-C] nucleotide 5' monophosphate (3×10^3 disintegrations min^-1). The assay was stopped by boiling, and the [3-H] […] The reaction mixture was diluted with 0.5 ml 100 mM HEPES (N-2-Hydroxyethylpiperazine-N'-2-ethanesulfonic acid), 100 mM NaCl, pH 8.5, and applied to the column. […] The recovery of product as judged by [14-C] recovery was approximately 80%. All assays were linear with time of incubation and concentration of enzyme over the range used in these experiments.

PDE (Peak I) [3] = experiment: Substrate kinetics of PDE (Peak I) from cat heart; type: biochemical; conditions: for Relative Vmax: PDE (Peak I)
PDE (Peak III) [4] = target: T1, PDE (Peak III); experiment: Substrate kinetics of PDE (Peak III) from cat heart; type: biochemical; design: DEAE-Sepharose Peak III from high-speed supernatant of cat heart homogenate
Method: as §2

PDE (Peak II) [5] = target: T2, PDE (Peak II) (Felis catus, UniProt A0ABI7ZLD2); experiment: Substrate kinetics of PDE (Peak II) from cat heart; type: biochemical
T2 construct: DEAE-Sepharose CL-6B Peak II of cat heart high-speed supernatant
T2 sequence (A0ABI7ZLD2 1-921): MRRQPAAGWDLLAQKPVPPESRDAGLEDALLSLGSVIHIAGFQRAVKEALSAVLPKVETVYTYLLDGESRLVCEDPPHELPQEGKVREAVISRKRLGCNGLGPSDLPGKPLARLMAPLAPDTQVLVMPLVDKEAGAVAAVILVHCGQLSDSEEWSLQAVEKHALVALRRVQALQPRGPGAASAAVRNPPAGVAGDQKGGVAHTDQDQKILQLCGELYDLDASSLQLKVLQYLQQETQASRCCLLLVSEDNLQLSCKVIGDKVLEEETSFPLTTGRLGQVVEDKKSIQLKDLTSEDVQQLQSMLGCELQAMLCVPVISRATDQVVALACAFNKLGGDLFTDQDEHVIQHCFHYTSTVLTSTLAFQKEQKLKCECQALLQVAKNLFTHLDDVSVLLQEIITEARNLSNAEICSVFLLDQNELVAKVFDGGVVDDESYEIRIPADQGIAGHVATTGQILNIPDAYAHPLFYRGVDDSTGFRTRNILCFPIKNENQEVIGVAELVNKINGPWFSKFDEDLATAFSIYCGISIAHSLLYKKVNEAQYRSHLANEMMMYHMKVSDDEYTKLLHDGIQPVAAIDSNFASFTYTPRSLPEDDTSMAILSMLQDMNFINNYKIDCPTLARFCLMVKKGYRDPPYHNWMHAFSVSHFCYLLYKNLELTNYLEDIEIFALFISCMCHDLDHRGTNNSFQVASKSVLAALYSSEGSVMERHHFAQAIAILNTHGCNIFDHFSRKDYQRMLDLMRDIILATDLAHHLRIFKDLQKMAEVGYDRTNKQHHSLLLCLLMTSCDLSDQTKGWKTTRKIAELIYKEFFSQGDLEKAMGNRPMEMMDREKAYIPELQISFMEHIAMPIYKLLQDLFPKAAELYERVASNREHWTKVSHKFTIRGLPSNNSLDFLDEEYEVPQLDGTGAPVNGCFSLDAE
Method: as §2

PDE (Peak I) [6] = experiment: Inhibition of Phosphodiesterases, PDE (Peak I); type: biochemical, cat; conditions: at up to 10^-4 M
From the text: (§1) This specificity is an indication that the compound is likely to have a force/rate selectivity in its cardiac stimulant activity with a low potential for inducing arrythmias.

[7] = test system: platelet aggregation induced by the endoperoxide mimetic U44069; experiment: Platelet Aggregation Inhibition--In vitro; type: cell-based; conditions: U44069 (10 μM), aspirin-treated (100 μM) human platelet rich plasma
Method: Platelet rich plasma (PRP) was prepared from whole human blood anti-coagulated with 1/10 volume acid citrate dextrose. The citrated blood was centrifuged at 700 g for 5 minutes and the PRP removed. The remaining red cells and plasma were centrifuged for a further 15 minutes at 900 g and the platelet poor plasma removed. This was then mixed with the PRP to give a final platelet count of 2-3×10^8 cells/ml.
PRP was divided into 0.5 ml aliquots which were preincubated for 2 minutes to 37° C. before being placed in the sample chamber of an HG aggregometer connected to a Teckman chart recorder.
Aspirin was added to a concentration of 100 μM.
Aggregation to the endoperoxide mimetic U44069 (9,11-epoxymethano-PGH2) was then examined in the absence and presence of a range of concentrations of the compound of formula (2).

[8] = test system: left ventricular dp/dt max (index of left ventricular contractility); experiment: Cardiac Stimulant Activity--In vivo (Anaesthetised Cats); design: species or system cat; conditions: intravenous
From the text: In anaesthetised cats pretreated with a ganglion blocker (mecamylamine or pempidine) and propranolol, the compound of formula (2) causes increases in left ventricular dp/dt max (this is an index of left ventricular contractility) when administered intravenously.

[9] = test system: histamine-induced bronchoconstriction; experiment: Bronchodilatation--In vivo (histamine-induced bronchoconstriction); design: species or system guinea-pig, Dunkin Hartley strain; conditions: i.v., one minute before histamine challenge
Method: Male guinea-pigs of the Dunkin Hartley strain (530 g±6 g) were anaesthetised with Sagatal (pentobarbital sodium) (90 mg/kg i.p.). Airway resistance was measured using a modification of the classical Konzett-Rossler technique (Versuchsanordnung zu Untersuchungen an der Bronchialmuskulatur. Naunyn-Schmiedebergs Arch. Exp. Path. Pharmak., 195: pp 71-74, (1940)). A dose of histamine which gave approximately 150% increase in airway resistance was selected for i.v. administration. Bolus doses of the compound of formula (2) was administered (i.v.) one minute before the histamine challenge.

PDE (Peak II) [10] = target: T2, PDE (Peak II); experiment: Inhibition of Phosphodiesterases, PDE (Peak II); type: biochemical, cat
From the text: as §1

SMILES: Nc1cc(-c2ccncc2)c[nH]c1=O [Amrinone, reference compound]
activity in comparison with the compound of formula (2) [1]: less active
duration in comparison with the compound of formula (2) [1]: shorter duration
IC50 (PDE (Peak III) [2]; PDE (Peak III), 1 μM cyclic AMP): 51.8 µM

Relative Vmax (PDE (Peak III) [4]): 0.4
Relative Vmax (PDE (Peak II) [5]; PDE (Peak II)): 0.2
affinity of PDE (Peak II) for substrate (PDE (Peak II) [5]; in words): relatively low affinities
SMILES: Nc1nc2c(ncn2[C@@H]2O[C@@H]3COP(=O)(O)O[C@H]3[C@H]2O)c(=O)[nH]1 [cyclic GMP]
Relative Vmax (PDE (Peak I) [3]; 50 μg/ml calmodulin added): 7.2
Relative Vmax (PDE (Peak I) [3]; without calmodulin): 1.1
affinity of PDE (Peak I) for substrate (PDE (Peak I) [3]; in words): high affinity

IC50 [7]: 0.08 ± 0.01 µM
inhibition of PDE (Peak II) (PDE (Peak II) [10]): either no or weak inhibition
SMILES: CC1CC(=O)NN=C1c1ccc(-n2ccc(=O)cc2)cc1 (centres unmarked) [formula (2)]
inhibition of PDE (Peak I) (PDE (Peak I) [6]): no inhibition
ED50 ([8]; Felis catus, read-out: ED50 (dose to increase left ventricular dp/dt max by 50%), anaesthetised cats pretreated with ganglion blocker and propranolol): 0.04 µmol/kg
changes in blood pressure or heart rate ([8]; anaesthetised cats): Minimal changes
ED50 ([9]; Cavia porcellus, iv, read-out: ED50 (dose which reduced the histamine bronchoconstriction by 50%)): 1.8 µmol/kg
minimal effective dose ([9]; Cavia porcellus, read-out: threshold dose): 0.01 µmol/kg
effect on histamine-induced bronchoconstriction [9]: reduced the histamine-induced bronchoconstriction
changes in blood pressure or heart rate [1]: without changes
force-rate selectivity [1]: particularly beneficial
selectivity for PDE (Peak III) / phosphodiesterase type III (PDE (Peak III) [2]; versus PDE (Peak I) and PDE (Peak II)): selective phosphodiesterase type III inhibitor; also recorded: selective PDE (Peak III) inhibitor

Source: patent US4782159A, “Process for preparing beta-methyl-gamma-oxo-4-(4-oxo-1(4H)-pyridinyl) derivative of benzene butanoic acid” (Smith Kline & French Laboratories Limited, priority 1986, dated 1988)
